Assay results: patent publication US20220184172A1, “AMPK/CASPASE-6 AXIS CONTROLS LIVER DAMAGE IN NONALCOHOLIC STEATOHEPATITIS” (The Regents of the University of California, priority 2019, published 2022)

Tested on: procaspase-6 cleavage in primary hepatocytes
Assay: Procaspase-6 cleavage induced by TNFα and CHX in primary hepatocytes (IB)
Type: cell-based, mice
Conditions: 40 μM pretreatment 1 hr, then 30 μg/ml CHX and 50 ng/ml TNFα 2 hrs
Excerpt: FIGS. 5A-5K. AMPK phosphorylates caspase-6 to inhibit its cleavage and activation. FIG. 5A. […] IB analysis of cell lysates. n=3. Mean±SD. *, P<0.05, two-way ANOVA. FIG. 5B. […] Cell lysates were subject to caspase-6 activity assay. Mean±SD. *, P<0.05. FIG. 5C. Caspase-6 Ser^257 locates within AMPK substrate motif. FIG. 5C. discloses SEQ ID NOS 57-63, respectively, in order of appearance. FIG. 5D. In vitro kinase assay using recombinant caspase-6, and recombinant AMPKα1β1γ1 or AMPKα2β1γ1 active kinase. FIG. 5E. Alignment of caspase-6 sequence. FIG. 5E. discloses SEQ ID NOS 64-67, respectively, in order of appearance. FIG. 5F. HEK293T cells overexpressing caspase-6-myc WT, S^257A, S^257D or S^257E mutant were treated with 10 μg/ml CHX and 25 ng/ml TNFα for 2 hrs. IB analysis of cell lysates. FIGS. 5G-5J. C57BL/6J mice were fed CD-HFD for 6 weeks, followed by intraperitoneally injection of 25 mg/kg A-769662 or vehicle daily for 2 weeks while continuous CD-HI-D. Mice were sacrificed 6 hrs after last injection. FIG. 5G. IB analysis of liver lysates. n=5. FIG. 5H. Liver lysates were subject to caspase-6 activity assay. n=7. FIG. 5I. Liver sections stained as indicated therein (aCasp6 and DAPI); in the merged image sections, the different stains correspond to the grayscale shades as indicated in the single stained images to the left. Scale bar=50 μm. […] Quantification of aCasp6 staining per field in FIG. 5I. n=7. […]

N#Cc1c(O)c2c(-c3ccc(-c4ccccc4O)cc3)csc2[nH]c1=O [A-769662]
procaspase-6 cleavage: significantly inhibited
